Source: US20040038950A1, “Pharmaceutical composition for treating IL-1 related diseases or disorders” (priority 2002, published 2004)

Tests used:
TIMP-1 mRNA = experiment: Osteoarthritic rabbit model (ACLT), intraarticular injection, RT-PCR of TIMP-1; assay type: in vivo; conditions: rabbit ACLT knee, intraarticular once a week for 5 weeks
Procedure: (§1) Mature New Zealand White rabbits underwent bilateral anterior cruciate ligament transection (ACLT). ACLT was performed using a medial arthrotomy method. Postoperatively the animals were permitted cage (60 cm×60 cm×40 cm) activity without immobilization. The right knees received via intraartiticular injection DHEA, DHEA-pyruvate or DHEA+HA, 4 weeks after ACLT and once a week for 5 weeks. The left knees received 0.3 ml of intraarticular injection with control solution (carrier solution). After 9 weeks from ACLT, the animas were sacrificed.
(§2) Synovium (entire tissue) around the infrapatellar fat pads and cartilage tissue from the femoral condyle and the tibial plateau were harvested. The subsequent experimental procedure was the same as described in Test Example IV.

type II collagen mRNA = experiment: Osteoarthritic rabbit model (ACLT), intraarticular injection, RT-PCR of type II collagen; assay type: in vivo; conditions: rabbit ACLT knee, intraarticular once a week for 5 weeks
Procedure: as §1, §2

MMP-1 mRNA = experiment: Effect of IL-1β on MMP-1 mRNA expression in chondrocyte culture, RT-PCR; assay type: cell-based, human; conditions: 1000 μg/ml of IL-1β, 3 days
Procedure: (§3) Sixteen hours prior to a treatment, the complete culture medium was replaced with a serum-free medium. Chondrocyte alginate bead cultures were then treated with IL-1β ([…], (Calbiochem) and DHEA (0, 10, 50 or 100 μM) for 3 days.
(§4) Total RNA from chondrocytes was extracted using RNeasy Mini Kit (QIAGEN). Reverse transcription from 1 μg of total RNA was conducted using First Strand cDNA Synthesis Kit (MBI Fermentas) according to manufacturer's recommendation with random hexamers. The resulting cDNA was then amplified by polymerase chain reaction using AccuPower PCR Premix (Bioneer, Korea) in a final volume of 20 μl using three thermocycler temperatures (30 sec at […], 30 sec at 60° C., and 30 sec at […]). All reactions were determined to be in the linear range of amplification with the cycle number ranging from 14 to 30. The PCR products were analyzed by separation on a 2% agarose gel followed by ethidium bromide staining. Following electrophoresis, photographs were taken and analyzed using a densitometric program (TINA; Raytest Isotopenmeβgerate, Germany). Integrated density values for the genes in question were then normalized to the glyceraldehyde-3-phosphate dehydrogenase (GAPDH) values for a semiquantitative assessment. After normalizing with respect to GAPDH, percentage increase or decrease was determined. Each experiment was repeated at least three times. […]

MMP-3 mRNA = experiment: Effect of IL-1β on MMP-3 mRNA expression in chondrocyte culture, RT-PCR; assay type: cell-based, human; conditions: 100 μg/ml of IL-1β, 3 days
Procedure: as §3, §4

## CC(=O)C(=O)O[C@H]1CC[C@@]2(C)C(=CC[C@@H]3[C@@H]2CC[C@]2(C)C(=O)CC[C@@H]32)C1 [DHEA-pyruvate, DHEA-Pyruvate]
TIMP-1 mRNA
  expression of TIMP-1: increased
Type II collagen mRNA
  expression of type II collagen: increased

## IL-1β: recombinant human interleukin-1β (Calbiochem), used to induce MMP mRNA in chondrocytes
MMP-1 mRNA
  MMP-1 mRNA, increase: 470%
MMP-3 mRNA
  MMP-3 mRNA, increase: 310%
